The values that follow come from patent publication US20130171141A1, “COMBINATION OF HDAC INHIBITORS WITH THROMBOCYTOPENIA DRUGS” (NOVARTIS AG, priority 2010, published 2013).

Each structure is given as a SMILES string.

The test system of data set [1] is murine platelet lifespan. The experiment in a line: Platelet clearance analysis (biotinylated platelet lifespan) in HDACi-treated mice. To be noted: for decrease in labelled (biotinylated) platelets in peripheral blood over time: IV NHS-biotin, seven days, 10 mg/kg panobinostat IP or 1 mg/kg romidepsin IP daily, compared to vehicle. How it is done: Mice were twice injected intravenously (IV), one hour apart, with 600 μg NHS-biotin in phospho-buffered saline (PBS) and 10% dimethyl sulphoxide (DMSO). At various time points peripheral blood was isolated from the tail, and 1 μl blood was washed twice in PBS and 10 mM EDTA. Platelets were stained with phycoerythrin-conjugated rat anti-CD41 and allophycocyanin-conjugated streptavidin (APC-A) for 30 minutes on ice. Samples were washed again and incubated with 0.125 μg/ml thiazole orange, which has increased uptake in high RNA-containing platelets, staining younger, reticulated platelet fraction, for 90 minutes. Flow cytometry was then performed on an LSR flow cytometer. By plotting the number of biotinylated platelets against time, an estimate of the life span was obtained by linear extrapolation, while the number of thiazole orange-positive, non-biotinylated platelets provided an estimate of new platelet production.
The mice were then treated for seven days with either 10 mg/kg panobinostat IP or 1 mg/kg romidepsin IP daily or vehicle, and the number of biotinylated platelets in peripheral blood was determined. […] ABT-737 is a BH3 mimetic that inhibits Bcl-xL, which causes direct platelet apoptosis. […] Megakaryocytes are the haematopoietic cells responsible for the production of platelets which reside in the bone marrow.

Data set [2] deals with reticulated platelets. The experiment in a line: Reticulated platelet staining (thiazole orange), new platelet production. Format: in vivo, C57BL/6 mice. As to conditions: for absolute number of reticulated (new) platelets: 6 day experiment, thiazole orange, FIG. 2. The method, then:
To assess platelet production, C57BL/6 mice were treated with panobinostat, carboplatin and ABT-737, and the RNA-containing platelet fraction (i.e. new platelets) was determined by staining with thiazole orange (FIG. 2). The number of new, reticulated platelets in vehicle-treated mice remained relatively constant over the 6 day time span of the experiment.

The test system of data set [3] is thrombocytopenia (TCP). The experiment in a line: HDACi-induced thrombocytopenia and co-treatment with TPO-mimetic. Format: in vivo. To be noted: wild-type C57BL/6 mice, 10 mg/kg IP daily, 12-day period. How it is done: To determine whether administration of a TPO-mimetic could ameliorate TCP, some of the panobinostat-treated mice were subjected to co-treatment with 20 μg/kg AMP-4 at day 0 and day 6 (FIG. 3).
To determine whether administration of a TPO-mimetic could ameliorate TCP, some of the romidepsin-treated mice were subjected to co-treatment with 20 μg/kg AMP-4 at day 0 and day 6 (FIG. 4).

For data set [4], the system named is platelet count. The experiment in a line: Compound III with eltrombopag in Hodgkin's lymphoma patient. Format: in vivo, human. To be noted: recommended dosage of compound III, Example 1. How it is done:
A patient having Hodgkin's lymphoma is given the recommend dosage of compound III. […] A patient having Hodgkin's lymphoma is tested for thrombocytopenia. Patient is found to have a low blood cell count or a biomarker for thrombocytopenia. Patient is put on a regimen of compound III together with eltrombopag.

Data set [5] deals with platelet count. The experiment in a line: Compound III with eltrombopag in multiple myeloma patient. To be noted: recommended dosage of compound III, Example 3. Format: in vivo, human. How it is done:
A patient having multiple myeloma patient is given the recommend dosage of compound III. […] A patient having Hodgkin's lymphoma is tested for thrombocytopenia. Patient is found to have a low blood cell count or a biomarker for thrombocytopenia. Patient is put on a regimen of compound III together with eltrombopag.

Regarding `CN(C)CC[C@H](CSc1ccccc1)Nc1ccc(S(=O)(=O)NC(=O)c2ccc(N3CCN(Cc4ccccc4-c4ccc(Cl)cc4)CC3)cc2)cc1[N+](=O)[O-]` [ABT-737], the “reduction in platelet number” value in data set [1] (biotinylated platelets, two hours following administration) was determined as 50%. Moreover, in data set [1] (mice, FIG. 1), the “decrease in labelled (biotinylated) platelets in peripheral blood over time” value (from here on “decrease in labelled”) is “rapidly reduced”. In addition, the “absolute number of reticulated (new) platelets” value in data set [2] (C57BL/6 mice) was “substantial increase”.

For the compound `N.N.O=C([O-])C1(C(=O)[O-])CCC1.[Pt+2]` [carboplatin], in data set [1] (mice, FIG. 1), the platelet life span result is “did not affect”. Also, the “absolute reticulated platelet numbers” value in data set [2] (6 days after the commencement of treatment) is reported as “significantly reduced”. The new platelet production entry in data set [2] (first 4 days of treatment) was “did not significantly affect”.

As for `Cc1[nH]c2ccccc2c1CCNCc1ccc(/C=C/C(=O)NO)cc1` [panobinostat, N-hydroxy-3-[4-[[[2-(2-methyl-1H-indol-3-yl)-ethyl]-amino]methyl]phenyl]-2E-2-propenamide], the “decrease in labelled” value in data set [1] (mice, FIG. 1) was “remained similar to vehicle-treated mice”. In data set [2] (C57BL/6 mice), the “absolute number of reticulated (new) platelets” value is recorded as “dramatic decrease”. The “platelet count versus baseline” value in data set [2] (C57BL/6 mice, throughout the course of the experiment) is given as “remained well below baseline levels”. Moreover, the “thrombocytopenia (TCP)” value in data set [3] is recorded as “sustained TCP”. The “patient's platelet count” value in data set [4] and in data set [5] was “begins to lower” each time.

`C/C=C1\NC(=O)[C@H]2CSSCC/C=C/[C@H](CC(=O)N[C@H](C(C)C)C(=O)N2)OC(=O)[C@H](C(C)C)NC1=O` [romidepsin]: the “decrease in labelled” value in data set [1] (mice, FIG. 1) is given as “remained similar to vehicle-treated mice”. Moreover, the “thrombocytopenia (TCP)” value in data set [3] is given as “sustained TCP”.
